Laboratory results published in US12527788B2, “Defining RNA-small molecule affinity landscapes enables design of a small molecule inhibitor of an oncogenic non-coding RNA” (University of Florida Research Foundation, Incorporated, priority 2017, dated 2026).

Assays:
miR-19b = experiment: RT-qPCR of mature miRNA levels in DU145 cells; assay type: cell-based, human
Method: In particular, the mature levels of each miRNA in the cluster were studied by RT-qPCR. In agreement with our in vitro Dicer processing studies (FIG. 8A and Figures S-58-S-62), 4 decreases the amount of mature miR-17, -18a, and -20a at low micromolar concentrations with an IC50 of ˜10 µM, but has no effect on miR-19a, -19b, and -92a (FIG. 8B).
Cell Culture: DU145 cells were cultured in growth medium (Roswell Park Memorial Institute medium (RPMI) supplemented with 10% fetal bovine serum (FBS)) at 37° C. and 5% CO2
Total RNA was extracted from cells using a Quick-RNA Miniprep Kit (Zymo Research) per the manufacturer's protocol. Approximately 200 ng of total RNA was used in reverse transcription (RT) reactions, which were completed using a miScript II RT kit (Qiagen) per the manufacturer's protocol. RT-qPCR was performed on a 7900HT Fast Real Time PCR System (Applied Biosystem) using power SYBR Green Master Mix (Applied Biosystems). All primer sets were purchased from Integrated DNA Technologies, Inc. (IDT) or Eurofins (Table S1). The expression levels of mature miRNAs were normalized to U6 small nuclear RNA or 18s rRNA.

[1] = test system: motif in the Dicer site of miR-19b; experiment: Fluorescence-based binding affinity measurement; design: species or system human; conditions: miR-19b Dicer site motif
Method: (§1) Mutation of the U bulge to an AU pair (RNAC) eliminates binding (Kd>100 μM).
(§2) Binding Affinity Measurements: An in solution, fluorescence-based assay was used to determine binding affinities by monitoring the change in fluorescence intensity of 1-FL (or 2-FL/3-FL/4-FL) as a function of RNA concentration as described previously.^18 Briefly, the RNA of interest was folded in 1× Folding Buffer (8 mM Na2HPO4, pH 7.0, 185 mM NaCl and 1 mM EDTA) by heating at 60° C. for 5 min followed by slowly cooling to room temperature on the bench top. Then, the FL-conjugated compound was added into the RNA solution to a final concentration of 100 nM. Serial dilutions were then completed using 1× Folding Buffer supplemented with 100 nM FL-conjugated compound. The solutions were incubated at room temperature for 30 min and then transferred to a well of a black 384-well plate. Fluorescence intensity was measured using a Bio-Tek FL×800 plate reader with an excitation wavelength of 485/20 nm and an emission wavelength of 528/20 nm. The change in fluorescence intensity as a function of the concentration of RNA was fit to equation 3:^9 I=I0+0.5 Δε{([FL]0+[RNA]0 +Kd)−(([FL]0+[RNA]0+Kd)^2−4[FL]0[RNA]0)^1/2} (3) where I is the observed fluorescence intensity; I0 is the fluorescence intensity in the absence of RNA; Δε is the difference between the fluorescence intensity in the absence of RNA and in the presence of infinite RNA concentration; [FL]0 is the concentration of compound; [RNA]0 is the concentration of the selected RNA; and Kd is the dissociation constant.

[2] = test system: motif in the Dicer site of miR-19a; experiment: Fluorescence-based binding affinity measurement; design: species or system human; conditions: miR-19a Dicer site motif
Method: as §1, §2

[3] = test system: motif in the Dicer site of miR-92a; experiment: Fluorescence-based binding affinity measurement; design: species or system human; conditions: miR-92a Dicer site motif
Method: as §1, §2

AT-rich DNA hairpin = experiment: In solution fluorescence-based binding affinity measurement
Text: It has been difficult to identify compounds that are heterocyclic in nature that selectively recognize RNA over DNA.^5 Thus, to further gain insight into the selectivity of our RNA motif-small molecule interactions, we compared the measured affinities for selected RNA motifs to the affinities of the ligands for an AT-rich DNA hairpin, a common target of small molecules similar to those shown in FIG. 1. […] This alteration reduces DNA affinity because key stacking and hydrogen bonding interactions are not possible. […] Thus, the interactions selected via 2DCS are RNA-selective.
as §2

selected RNA motifs = experiment: as above; conditions: read-out: Average Kd of Selected RNA Binders
Method: Bound RNA motifs for each compound were harvested from the array surface, amplified, and identified by using high throughput sequencing (RNA-seq). Highly abundant RNAs in the sequencing data were then subjected to binding measurements. Typically, those RNAs that were highly enriched bound to the small molecules with affinities (Kds) that ranged from 1 to 10 μM (FIG. 2 and Table 1) while binding to the starting libraries was not saturable. These affinities are promising for binding RNA, as it has been difficult to acquire low micromolar affinity with compounds of this low molecular weight. In fact, RNAs that have undergone Darwinian evolution to bind small molecules, namely riboswitches, often bind their cognate ligand at […] concentrations;^30-33 bioactive compounds that mimic riboswitch ligands bind with similar affinities.^30,34
as §2

[4] = test system: other miRNAs studied (of the 33 with potential binding sites); experiment: Chem-CLIP in DU145 cell lysates; design: species or system human; conditions: 10 μM, DU145 cell lysate
Method: Chem-CLIP in Cell Lysates: DU145 cells were cultured as described above in 100 mm dishes and lysed with 500 μL of Cell Lysis Buffer (10 mM Tris pH 7.4, 0.25% Igepal CA-630 and 150 mM NaCl) for 5 min at room temperature. The cell lysate was then centrifuged and the supernatant collected. Next, 10 μM of 4 was added to the lysate in 1×PBS and the sample was incubated for 2 h at room temperature. The reaction was then directly used for pull-down by incubating with 50 μL of streptavidin resin in 1×PBS for 30 min at room temperature. […] RNA was eluted from the streptavidin beads by incubation with 100 μL of 1× Elution Buffer (10 mM EDTA and 95% formamide) at 65° C. for 20 min. The eluted RNA was cleaned up using a Quick-RNA Miniprep Kit (Zymo) per the manufacturer's protocol. RT-qPCR was completed as described above using 50 ng of total RNA in the RT reaction. Expression levels were normalized to 18S rRNA.

[5] = target: RNA2 (A bulge of the miR-18a precursor); experiment: Fluorescence-based binding affinity measurement; design: species or system human
Method: (§3) FIG. 7: Secondary structures of the nucleic acids to which the binding of small molecule 4 was assessed. […] RNA1 contains the U bulge present in the Dicer processing site common to miR-17, -18a and -20a. RNA2 contains the A bulge that is present in miR-18a. RNA3 contains the G bulge present in miR-17 and miR-20a. Binding affinities (Kd's) are indicated in parentheses and are reported in micromolar.
as §1, §2

[6] = target: RNA1 (5′G_U/3′CUA U bulge of Dicer sites in miR-17, -18a and -20a); experiment: Fluorescence-based binding affinity measurement; design: species or system human
Method: as §3, §1, §2

[7] = target: RNA3 (G bulge of the miR-17 and miR-20a precursors); experiment: Fluorescence-based binding affinity measurement; design: species or system human
Method: as §3, §1, §2

- Saturable binding [1]: No saturable binding
- Saturable binding [2]: No saturable binding
- Saturable binding [3]: No saturable binding
- Kd (AT-rich DNA hairpin): > 100 µM
- Kd (selected RNA motifs): 11 ± 2 µM
- Kd [5]: 32 ± 5 µM
- Kd [6]: 30 ± 2 µM
- Kd [7]: 40 ± 6 µM
SMILES: CN1CCN(c2ccc(-c3ccc4nc(-c5cc(C(C)(C)C)c(OCCCC(=O)NCCCN=[N+]=[N-])c(C(C)(C)C)c5)[nH]c4c3)cc2)CC1 [Compound 4]
- Effect on mature miRNA level (miR-19b): no effect
- Enrichment in pulled-down fraction [4]: no enrichment
